Assay results as given in patent US20170029841A1, “METHODS AND COMPOSITIONS FOR SELECTIVE REGULATION OF PROTEIN EXPRESSION” (priority 2015, published 2017).

Test system: maize tissue pools (tassel, ear, leaf, root, stem)
Experiment: siRNA profiling microarray assay of mts-siRNA sequences across maize tissues
Details: for 01DKD2 V8-V9 Tassel relative signal value: germplasm 01DKD2, V8-V9 tassel; for 01DKD2 V10-V12 Tassel relative signal value: germplasm 01DKD2, V10-V12 tassel; for 01DKD2 Other Tissue relative signal value: germplasm 01DKD2, combined signals from other tissue; for LH244 V8-V9 Tassel relative signal value: germplasm LH244, V8-V9 tassel; for LH244 V10-V12 Tassel relative signal value: germplasm LH244, V10-V12 tassel; for LH244 Other Tissue relative signal value: germplasm LH244, combined signals from other tissue
Procedure: A siRNA profiling microarray assay was performed using μParaflo® Microfluidics chips provided by LC Sciences LLC (Houston, Tex., USA) with 1,200 sequences selected from the thousands of mts-siRNA sequences identified from the differential bioinformatic analysis. The microarray chips contained triplicate probes of the complementary sequence for each of the 1,200 mts-siRNA sequences. Total RNA was purified from 26 maize tissue pools (duplicate or triplicate tissue pools) from either LH244 (ATCC deposit number PTA-1173) or 01DKD2 (I294213) (ATCC deposit number PTA-7859) inbred plants. Each of the 26 RNA samples were hybridized with the microarray chips that contain probes for the 1,200 mts-siRNA. Hybridization images were collected using a GenePix® 4000B laser scanner (Molecular Devices, Sunnyvale, Calif.) and digitized using Array-Pro® Analyzer image analysis software (Media Cybernetics, Rockville, Md.). Relative signal values were derived by background subtraction and normalization. Differentially expressed signals were determined by t-test with p<0.05. From the microarray analysis, about 500 mts-siRNA from the 1,200 were identified as being highly tassel-specific.
Selected mts-siRNA sequences aligning to one of the six cDNA sequences were used for further microarray analysis to determine differential expression across maize tissues. Microarray analysis for mts-siRNA sequences of normalized signal values for V8-V9 tassel, V10-V12 tassel, or combined signals from the other tissue for maize germplasm LH244 and 01DKD2 is presented in Tables 3-10. […] Signal value results are measured as relative signal values and standard error (p<0.05) is represented by (STDR). […] The mts-siRNA sequence corresponds to the sense or antisense strand of the corresponding mts-siRNA target sequence in the cDNA sequence. The mts-siRNA sequence may have a single nucleotide, a two nucleotide, or a three nucleotide mismatch with the aligned portion of the cDNA sequence, and the mts-siRNA sequence may align to the sense strand or antisense strand of the cDNA sequence. The mts-siRNA sequences provided here are found across different maize germplasms.

| Substance | 01DKD2 V8-V9 Tassel relative signal value | 01DKD2 V10-V12 Tassel relative signal value | 01DKD2 Other Tissue relative signal value | LH244 V8-V9 Tassel relative signal value | LH244 V10-V12 Tassel relative signal value | LH244 Other Tissue relative signal value |
| --- | --- | --- | --- | --- | --- | --- |
| SEQ ID NO: 39: mts-siRNA sequence aligning to cDNA SEQ ID NO: 18 (CATCGACCAATGACATTCCCTC; expressed or natural sequence) | 16 | 1514.5 | 1.5 | 442.5 | 2157.3 | 0.6 |
| SEQ ID NO: 40: mts-siRNA sequence aligning to cDNA SEQ ID NO: 18 (CCTTGCGCCTTAACTATCGTGC; expressed or natural sequence) | 7.5 | 452 | 2.8 | 119 | 448.7 | 1.5 |
| SEQ ID NO: 41: mts-siRNA sequence aligning to cDNA SEQ ID NO: 18 (ACCCTTGCGCCTTAACTATCGTGC; expressed or natural sequence) | 5 | 752 | 3 | 185.5 | 702.7 | 0.9 |
| SEQ ID NO: 42: mts-siRNA sequence aligning to cDNA SEQ ID NO: 18 (ACTACAGTGAGAGTCTAGGAAAGC; expressed or natural sequence) | 6 | 588 | 5.3 | 143.5 | 564.3 | 2.6 |
| SEQ ID NO: 43: mts-siRNA sequence aligning to cDNA SEQ ID NO: 19 (AGCACTCGAGCTTTCACGCCAACA; expressed or natural sequence) | 4 | 190.5 | 4.3 | 52.5 | 147.3 | 1 |
| SEQ ID NO: 44: mts-siRNA sequence aligning to cDNA SEQ ID NO: 19 (TTGGCGTGAAAGCTCGAGTGCTCC; expressed or natural sequence) | 15.5 | 1443.5 | 6.3 | 756 | 1340 | 1.8 |
| SEQ ID NO: 45: mts-siRNA sequence aligning to cDNA SEQ ID NO: 19 (TAAATGGTCGTCGTATTAGCTGAT; expressed or natural sequence) | 253 | 7195.5 | 5.8 | 7901 | 9982.3 | 8.2 |
| SEQ ID NO: 46: mts-siRNA sequence aligning to cDNA SEQ ID NO: 19 (CAGCTAATACGACGACCATTTAGG; expressed or natural sequence) | 252 | 6778 | 6.8 | 4502.5 | 8663.3 | 8.4 |
| SEQ ID NO: 47: mts-siRNA sequence aligning to cDNA SEQ ID NO: 19 (TGGTGTGGTCGTTAGCTACTTTA; expressed or natural sequence) | 12.5 | 1051.5 | 4 | 157.5 | 900.7 | 15.5 |
| SEQ ID NO: 48: mts-siRNA sequence aligning to cDNA SEQ ID NO: 19 (AAAGTAGCTAACGACCACACCACC; expressed or natural sequence) | 9.5 | 470.5 | 1 | 221 | 720.3 | 4.8 |
| SEQ ID NO: 49: mts-siRNA sequence aligning to cDNA SEQ ID NO: 19 (TACTACTACTCCCTTCTCGG; expressed or natural sequence) | 57.5 | 867 | 55.3 | 340 | 1241.7 | 16.3 |
| SEQ ID NO: 50: mts-siRNA sequence aligning to cDNA SEQ ID NO: 19 (CTGATATCTATGCTAATTCAGG; expressed or natural sequence) | 5.5 | 326 | 1.8 | 296 | 722 | 0 |
| SEQ ID NO: 51: mts-siRNA sequence aligning to cDNA SEQ ID NO: 19 (TGCCGAAGTGTGTCGTGACATTGG; expressed or natural sequence) | 24.5 | 275.5 | 40 | 158 | 287 | 34.3 |
| SEQ ID NO: 52: mts-siRNA sequence aligning to cDNA SEQ ID NO: 19 (CTGATATCTATGCTAATTCAGG; expressed or natural sequence) | 234 | 3286.5 | 3.5 | 4080 | 3629.7 | 5.5 |
| SEQ ID NO: 53: mts-siRNA sequence aligning to cDNA SEQ ID NO: 20 (CCATGTAATACACAGTGTCGTC; expressed or natural sequence) | 16 | 84 | 1.5 | 76.5 | 145 | 2.2 |
| SEQ ID NO: 54: mts-siRNA sequence aligning to cDNA SEQ ID NO: 20 (CATCGTCGTGCAGCTGGT; expressed or natural sequence) | 56 | 231 | 19.5 | 100.5 | 172 | 14.2 |
| SEQ ID NO: 55: mts-siRNA sequence aligning to cDNA SEQ ID NO: 20 (CGGACATTTGCAGTTCTATGGT; expressed or natural sequence) | 73 | 405.5 | 1 | 377.5 | 581.7 | 1.1 |
| SEQ ID NO: 56: mts-siRNA sequence aligning to cDNA SEQ ID NO: 20 (TACACAGTGTCGTCCTCTTCGT; expressed or natural sequence) | 138.5 | 599.5 | 19.3 | 261 | 692 | 49.5 |
| SEQ ID NO: 57: mts-siRNA sequence aligning to cDNA SEQ ID NO: 20 (GACATTTGCAGTTCTATGGTGT; expressed or natural sequence) | 29 | 134.5 | 3.8 | 126.5 | 248 | 2.4 |
| SEQ ID NO: 58: mts-siRNA sequence aligning to cDNA SEQ ID NO: 20 (CGAGGTACCAACTAACATCGGT; expressed or natural sequence) | 88.5 | 327 | 2 | 215.5 | 349 | 0.7 |
